Measurements reported in ChEMBL document CHEMBL1148660, “Identification of an indole series of prostaglandin D2 receptor antagonists” (Bioorg Med Chem Lett, 2006).

Assays:
Thromboxane A2 receptor = biological target: T1, Thromboxane A2 receptor (Homo sapiens, UniProt P21731); test: Binding affinity to TP receptor
T1 sequence (P21731 whole entry): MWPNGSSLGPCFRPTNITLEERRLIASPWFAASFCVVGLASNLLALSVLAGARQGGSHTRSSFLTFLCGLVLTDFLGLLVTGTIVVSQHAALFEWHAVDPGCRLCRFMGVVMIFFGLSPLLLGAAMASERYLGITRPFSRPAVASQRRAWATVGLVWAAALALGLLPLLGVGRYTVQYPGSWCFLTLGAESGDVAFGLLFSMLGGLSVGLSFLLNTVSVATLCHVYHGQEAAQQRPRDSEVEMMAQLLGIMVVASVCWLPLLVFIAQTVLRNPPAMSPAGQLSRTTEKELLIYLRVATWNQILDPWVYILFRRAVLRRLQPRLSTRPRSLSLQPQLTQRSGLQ

[1] = biological target: T2, Prostaglandin D2 receptor (Homo sapiens, UniProt Q13258); test: Binding affinity to DP receptor
T2 sequence (Q13258 whole entry): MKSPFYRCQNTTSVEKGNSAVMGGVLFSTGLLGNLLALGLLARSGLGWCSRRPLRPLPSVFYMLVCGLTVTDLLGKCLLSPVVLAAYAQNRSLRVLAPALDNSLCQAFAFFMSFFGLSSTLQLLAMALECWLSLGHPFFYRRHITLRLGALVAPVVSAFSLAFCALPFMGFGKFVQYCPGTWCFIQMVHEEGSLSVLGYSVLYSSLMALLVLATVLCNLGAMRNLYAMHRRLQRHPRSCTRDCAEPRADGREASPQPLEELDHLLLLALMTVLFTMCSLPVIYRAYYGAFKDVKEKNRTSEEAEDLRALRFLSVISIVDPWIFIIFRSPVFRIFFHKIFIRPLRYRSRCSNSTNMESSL

[2] = biological target: T3, Prostaglandin E2 receptor EP3 subtype (Homo sapiens, UniProt P43115); test: Binding affinity to EP3 receptor
T3 sequence (P43115 whole entry): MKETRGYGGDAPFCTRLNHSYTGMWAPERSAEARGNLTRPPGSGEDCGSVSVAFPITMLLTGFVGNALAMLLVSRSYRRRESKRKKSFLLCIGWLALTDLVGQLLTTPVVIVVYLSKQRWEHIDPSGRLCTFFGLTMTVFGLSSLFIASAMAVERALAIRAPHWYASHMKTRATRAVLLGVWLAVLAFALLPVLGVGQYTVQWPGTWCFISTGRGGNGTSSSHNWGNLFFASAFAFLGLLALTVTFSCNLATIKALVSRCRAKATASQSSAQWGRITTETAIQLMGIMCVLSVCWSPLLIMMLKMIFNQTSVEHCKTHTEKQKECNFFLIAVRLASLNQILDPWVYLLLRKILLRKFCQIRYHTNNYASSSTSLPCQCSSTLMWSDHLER

[3] = biological target: T2, Prostaglandin D2 receptor; test: Activity at DP receptor assessed as inhibition of PGD2-induced cAMP accumulation in platelet; assay type: functional
[4] = biological target: Prostaglandin E2 receptor EP2 subtype (Homo sapiens, UniProt P43116); test: Binding affinity to EP2 receptor
Chain of Prostaglandin E2 receptor EP2 subtype (P43116 whole entry): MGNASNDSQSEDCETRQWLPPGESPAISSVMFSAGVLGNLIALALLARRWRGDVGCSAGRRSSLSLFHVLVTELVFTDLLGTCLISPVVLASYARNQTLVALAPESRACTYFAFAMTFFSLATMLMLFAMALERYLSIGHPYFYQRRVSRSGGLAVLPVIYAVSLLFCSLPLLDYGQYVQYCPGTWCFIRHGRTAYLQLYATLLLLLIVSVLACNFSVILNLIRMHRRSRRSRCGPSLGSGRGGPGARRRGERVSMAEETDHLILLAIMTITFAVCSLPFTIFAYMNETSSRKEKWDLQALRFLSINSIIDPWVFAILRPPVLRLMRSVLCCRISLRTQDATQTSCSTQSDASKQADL

[5] = biological target: Prostaglandin E2 receptor EP4 subtype (Homo sapiens, UniProt P35408); test: Binding affinity to EP4 receptor
Chain of Prostaglandin E2 receptor EP4 subtype (P35408 whole entry): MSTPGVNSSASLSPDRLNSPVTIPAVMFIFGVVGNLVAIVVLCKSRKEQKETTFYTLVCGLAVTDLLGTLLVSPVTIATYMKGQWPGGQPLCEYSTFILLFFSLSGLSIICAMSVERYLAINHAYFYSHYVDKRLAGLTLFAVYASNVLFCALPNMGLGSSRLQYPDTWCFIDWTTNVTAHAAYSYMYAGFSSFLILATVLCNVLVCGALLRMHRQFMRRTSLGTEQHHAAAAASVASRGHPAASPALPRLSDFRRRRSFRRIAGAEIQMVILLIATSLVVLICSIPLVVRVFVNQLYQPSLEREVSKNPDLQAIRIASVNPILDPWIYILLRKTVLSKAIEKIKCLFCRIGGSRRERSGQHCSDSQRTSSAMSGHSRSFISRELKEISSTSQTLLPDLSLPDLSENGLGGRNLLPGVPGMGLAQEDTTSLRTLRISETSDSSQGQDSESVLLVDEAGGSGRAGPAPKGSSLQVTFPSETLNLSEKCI

[6] = biological target: Prostaglandin F2-alpha receptor (Homo sapiens, UniProt P43088); test: Binding affinity to FP receptor
Chain of Prostaglandin F2-alpha receptor (P43088 whole entry): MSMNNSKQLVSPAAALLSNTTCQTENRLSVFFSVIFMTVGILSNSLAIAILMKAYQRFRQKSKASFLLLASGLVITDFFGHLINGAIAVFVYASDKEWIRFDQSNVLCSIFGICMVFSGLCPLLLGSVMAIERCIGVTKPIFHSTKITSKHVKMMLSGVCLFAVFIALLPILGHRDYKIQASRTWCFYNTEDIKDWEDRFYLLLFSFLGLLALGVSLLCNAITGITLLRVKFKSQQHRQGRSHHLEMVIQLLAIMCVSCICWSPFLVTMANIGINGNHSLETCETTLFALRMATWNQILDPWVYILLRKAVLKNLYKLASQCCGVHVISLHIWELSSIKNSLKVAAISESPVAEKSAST

[7] = biological target: T2, Prostaglandin D2 receptor; test: Activity at DP receptor assessed as inhibition of PGD2-induced cAMP accumulation in platelet rich plasma; assay type: functional
[8] = biological target: T4, Prostaglandin E2 receptor EP1 subtype (Homo sapiens, UniProt P34995); test: Binding affinity to EP1 receptor
T4 sequence (P34995 whole entry): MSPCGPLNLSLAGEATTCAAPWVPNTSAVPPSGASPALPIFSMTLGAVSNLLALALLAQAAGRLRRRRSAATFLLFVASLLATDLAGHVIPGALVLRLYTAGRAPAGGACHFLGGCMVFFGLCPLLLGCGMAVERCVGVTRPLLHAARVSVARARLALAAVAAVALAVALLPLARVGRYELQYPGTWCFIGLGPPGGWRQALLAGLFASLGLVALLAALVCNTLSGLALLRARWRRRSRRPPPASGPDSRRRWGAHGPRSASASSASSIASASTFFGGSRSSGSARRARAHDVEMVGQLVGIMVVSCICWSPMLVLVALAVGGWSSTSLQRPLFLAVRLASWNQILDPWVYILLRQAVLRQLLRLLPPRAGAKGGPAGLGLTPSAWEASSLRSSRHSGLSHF

Prostacyclin receptor = Prostacyclin receptor (Homo sapiens, UniProt P43119); test: Binding affinity to IP receptor
Chain of Prostacyclin receptor (P43119 whole entry): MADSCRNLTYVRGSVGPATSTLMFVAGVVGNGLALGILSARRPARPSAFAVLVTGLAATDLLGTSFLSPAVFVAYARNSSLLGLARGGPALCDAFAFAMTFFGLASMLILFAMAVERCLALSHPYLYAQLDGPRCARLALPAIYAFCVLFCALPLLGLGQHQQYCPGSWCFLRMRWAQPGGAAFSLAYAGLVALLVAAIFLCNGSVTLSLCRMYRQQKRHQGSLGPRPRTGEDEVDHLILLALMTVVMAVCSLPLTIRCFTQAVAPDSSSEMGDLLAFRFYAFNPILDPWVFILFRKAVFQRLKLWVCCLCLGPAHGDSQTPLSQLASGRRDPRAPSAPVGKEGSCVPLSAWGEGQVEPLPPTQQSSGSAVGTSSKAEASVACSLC

Row | SMILES | Ki (Thromboxane A2 receptor) [nM] | Ki [1] [nM] | further results
1 | CC[S+]([O-])c1cccc2c3c(n(Cc4ccc(Cl)cc4)c12)C(CC(=O)O)CCC3 (stereo not drawn) | 340 | 4 | –
2 | O=C(O)CC1CCCc2c1n(Cc1ccc(Cl)cc1)c1c([S+]([O-])Cc3ccccc3)cccc21 (stereo not drawn) | 140 | 3.9 | –
3 | O=C(O)CC1CCCc2c1n(Cc1ccc(Cl)cc1)c1c([S+]([O-])c3ccccc3)cccc21 (stereo not drawn) | 96 | 29 | –
4 | O=C(O)CC1CCCc2c1n(Cc1ccc(Cl)cc1)c1c(CO)cccc21 (stereo not drawn) | 7.8 | 16 | –
5 | CS(=O)(=O)c1cc(C2CCCCC2)c2c(c1)c1c(n2Cc2ccc(Cl)cc2)C(CC(=O)O)CC1 (stereo not drawn) | 330 | 2.8 | –
6 | CS(=O)(=O)c1cc(Br)c2c(c1)c1c(n2Cc2ccc3ccc(Cl)cc3n2)C(CC(=O)O)CC1 (stereo not drawn) | 180 | 1 | –
7 | CN(C)S(=O)(=O)c1cc(Br)c2c(c1)c1c(n2Cc2ccc(Cl)cc2)C(CC(=O)O)CC1 (stereo not drawn) | 100 | 4.1 | –
8 | CS(=O)(=O)c1ccc(Cn2c3c(c4cc(S(C)(=O)=O)cc(Br)c42)CCC3CC(=O)O)cc1 (stereo not drawn) | 2700 | 1900 | –
9 | CS(=O)(=O)c1cccc2c3c(n(Cc4ccc(Cl)cc4)c12)C(CC(=O)O)CCC3 (stereo not drawn) | 5.1 | 1.9 | –
10 | C[S+]([O-])c1cccc2c3c(n(Cc4ccc(Cl)cc4)c12)[C@@H](CC(=O)O)CCC3 (single isomer, unassigned; 16) | 130 | – | –
11 | CC(C)[S+]([O-])c1cccc2c3c(n(Cc4ccc(Cl)cc4)c12)C(CC(=O)O)CCC3 (stereo not drawn) | 1800 | 23 | –
12 | CS(=O)(=O)c1cc(Br)c2c(c1)c1c(n2Cc2ccc3sc(Cl)c(Cl)c3n2)C(CC(=O)O)CC1 (stereo not drawn) | 220 | 4.4 | –
13 | CN(C)S(=O)(=O)c1ccc2c(c1)c1c(n2Cc2ccc(Cl)cc2)C(CC(=O)O)CC1 (stereo not drawn) | 2300 | 1100 | –
14 | CC(C)c1cccc2c3c(n(Cc4ccc(Cl)cc4)c12)C(CC(=O)O)CCC3 (stereo not drawn) | 9.1 | 1.7 | –
15 | CC(=O)c1cc(S(C)(=O)=O)cc2c3c(n(Cc4ccc(Cl)cc4)c12)[C@@H](CC(=O)O)CC3 | 1200 | 2.6 | Ki [2]: > 20000 nM; IC50 [3]: 2 nM; Ki [4]: 230 nM; Ki [5]: > 20000 nM; Ki [6]: > 20000 nM; IC50 [7]: 7.9 nM; Ki [8]: > 20000 nM; Ki (Prostacyclin receptor): > 20000 nM
16 | CS(=O)(=O)c1cc(-c2cccs2)c2c(c1)c1c(n2Cc2ccc(Cl)cc2)C(CC(=O)O)CC1 (stereo not drawn) | 730 | 4.5 | –
17 | CS(=O)(=O)c1cc(Br)c2c(c1)c1c(n2Cc2cccc(OC(F)(F)F)c2)C(CC(=O)O)CC1 (stereo not drawn) | 260 | 4.1 | –
18 | O=C(O)CC1CCCc2c1n(Cc1ccc(Cl)cc1)c1ccccc21 (stereo not drawn) | 2.4 | 36 | –

Row | SMILES | Ki (Thromboxane A2 receptor) [nM] | Ki [1] [nM] | further results
19 | CS(=O)(=O)c1ccc2c(c1)c1c(n2Cc2ccc(Cl)cc2)C(CC(=O)O)CC1 (stereo not drawn) | 2100 | 300 | –
20 | CS(=O)(=O)c1cc(Br)c2c(c1)c1c(n2Cc2ccc(Cl)cc2)C(CC(=O)O)CC1 (stereo not drawn) | 200 | 1.7 | –
21 | CS(=O)(=O)c1cc(C#N)c2c(c1)c1c(n2Cc2ccc(Cl)cc2)C(CC(=O)O)CC1 (stereo not drawn) | 1100 | 9.7 | –
22 | CN(C)C(=O)c1cccc2c3c(n(Cc4ccc(Cl)cc4)c12)C(CC(=O)O)CCC3 (stereo not drawn) | 3700 | 28 | –
23 | CC(O)c1cc(S(C)(=O)=O)cc2c3c(n(Cc4ccc(Cl)cc4)c12)C(CC(=O)O)CC3 (stereo not drawn) | 16000 | 8.5 | –
24 | O=C(O)CC1CCCc2c1n(Cc1ccc(Cl)cc1)c1c(F)cc(F)cc21 (stereo not drawn) | 1.7 | 11 | Ki [2]: > 300 nM; Ki [4]: > 4600 nM; Ki [5]: > 2900 nM; Ki [6]: > 20000 nM; Ki [8]: > 7000 nM; Ki (Prostacyclin receptor): > 2000 nM
25 | CS(=O)(=O)c1ccc2c(c1)c1c(n2Cc2ccc(Cl)cc2)C(CC(=O)O)CCC1 (stereo not drawn) | 990 | 80 | –
26 | C[S+]([O-])c1cccc2c3c(n(Cc4ccc(Cl)cc4)c12)C(CC(=O)O)CCC3 (stereo not drawn) | 172 | 2.8 | –
27 | C[S+]([O-])c1cccc2c3c(n(Cc4ccc(Cl)cc4)c12)[C@@H](CC(=O)O)CCC3 (single isomer, unassigned; 17) | 47 | 1.8 | –
28 | O=C(O)CC1CCCc2c1n(Cc1ccc(Cl)cc1)c1c(Br)cccc21 (stereo not drawn) | 2.2 | 2.6 | –
29 | CS(=O)(=O)c1cc(Br)c2c(c1)c1c(n2Cc2cccc(Cl)c2)C(CC(=O)O)CC1 (stereo not drawn) | 760 | 3.5 | –
30 | C=Cc1cc(S(C)(=O)=O)cc2c3c(n(Cc4ccc(Cl)cc4)c12)C(CC(=O)O)CC3 (stereo not drawn) | 520 | 3.6 | –
31 | CSc1cccc2c3c(n(Cc4ccc(Cl)cc4)c12)C(CC(=O)O)CCC3 (stereo not drawn) | 2.6 | 1 | –
32 | O=Cc1cccc2c3c(n(Cc4ccc(Cl)cc4)c12)C(CC(=O)O)CCC3 (stereo not drawn) | 6.6 | 6.3 | –
33 | CC(O)c1cc(S(C)(=O)=O)cc2c3c(n(Cc4ccc(Cl)cc4)c12)[C@@H](CC(=O)O)CC3 (stereo partly drawn) | 7100 | 1.8 | Ki [2]: > 20000 nM; IC50 [3]: 2 nM; Ki [4]: 390 nM; Ki [5]: > 2900 nM; Ki [6]: > 20000 nM; IC50 [7]: 8.6 nM; Ki [8]: > 20000 nM; Ki (Prostacyclin receptor): > 20000 nM
34 | CC(C)(C)c1ccc(Cn2c3c(c4cc(S(C)(=O)=O)cc(Br)c42)CCC3CC(=O)O)cc1 (stereo not drawn) | 820 | 7.5 | –
35 | O=C(O)CC1CCCc2c1n(Cc1ccc(Cl)cc1)c1c(C(=O)Nc3ccccc3)cccc21 (stereo not drawn) | 88 | 110 | –
36 | CC(=O)c1cc(S(C)(=O)=O)cc2c3c(n(Cc4ccc(Cl)cc4)c12)C(CC(=O)O)CC3 (stereo not drawn) | 3600 | 9.5 | –
